For one assay, the target named is T1, Tachykinin NK1 (Homo sapiens, UniProt P25103).
T1 construct: Eurofins Panlabs
The experiment in a line: Panlab assay, Tachykinin NK1. The class given is binding. The method, then: (§1) Compounds A, B, C, and D were tested in Panlab assays to evaluate potential off-target activity using standard assay kits. Methods employed in these studies have been adapted from the scientific literature to maximize reliability and reproducibility. Reference standards were run as an integral part of each assay to ensure the validity of the results obtained.
(§2) IC50 values were determined by a non-linear, least squares regression analysis using MathIQ™ (ID Business Solutions Ltd., UK). Where inhibition constants (Ki) are presented, the Ki values were calculated using the equation of Cheng and Prusoff (Cheng, Y., Prusoff, W. H., Biochem. Pharmacol. 22:3099-3108, 1973) using the observed IC50 of the tested compound, the concentration of radioligand employed in the assay, and the historical values for the KD of the ligand (obtained experimentally at Eurofins Panlabs, Inc.). Where presented, the Hill coefficient (nH), defining the slope of the competitive binding curve, was calculated using MathIQ™.

A further assay concerns the target T2, Adenosine Transporter (Cavia porcellus, UniProt H0V4R7).
T2 sequence (H0V4R7 1-461): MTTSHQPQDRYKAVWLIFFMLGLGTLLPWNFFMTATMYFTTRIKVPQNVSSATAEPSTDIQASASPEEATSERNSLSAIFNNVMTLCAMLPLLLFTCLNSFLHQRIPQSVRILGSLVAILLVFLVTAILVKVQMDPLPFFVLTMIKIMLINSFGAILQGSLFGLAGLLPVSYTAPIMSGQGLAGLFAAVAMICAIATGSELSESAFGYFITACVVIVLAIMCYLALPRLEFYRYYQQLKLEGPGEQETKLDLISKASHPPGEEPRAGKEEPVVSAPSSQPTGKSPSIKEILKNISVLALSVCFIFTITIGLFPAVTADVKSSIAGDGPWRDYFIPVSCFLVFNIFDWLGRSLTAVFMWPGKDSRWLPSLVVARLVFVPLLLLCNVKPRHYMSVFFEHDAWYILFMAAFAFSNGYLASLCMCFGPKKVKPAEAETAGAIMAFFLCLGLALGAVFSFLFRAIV
Kind of assay: Panlab assay, Adenosine Transporter. The class given is binding. The method, then: as §1, §2

The target in another assay is T3, CAMK2B (Homo sapiens, UniProt Q13554).
T3 construct: purchased ProQinase; host or cells: Sf9 insect cells or E. coli
The experiment in a line: 33PanQinase radiometric kinase assay, CAMK2B. The class given is biochemical. On the procedure: A radiometric protein kinase assay (33PanQinase Activity Assay) was used for measuring the kinase activity of the 320 protein kinases. All kinase assays were performed in 96-well FlashPlates™ from Perkin Elmer (Boston, Mass., USA) in a 50 μl reaction volume. The reaction cocktail was pipetted in 4 steps in the following order: • 1. 10 μl of non-radioactive ATP solution (in H2O) • 2. 25 μl of assay buffer/[γ-33P]-ATP mixture • 3. 5 μl of test sample in 10% DMSO • 4. 10 μl of enzyme/substrate mixture
All PKC assays (except the PKC-mu and the PKC-nu assay) additionally contained 1 mM CaCl2, 4 mM EDTA, 5 μg/ml phosphatidylserine and 1 μg/ml 1,2-dioleyl-glycerol.
The CAMKID, CAMK2A, CAMK2B, CAMK2D, CAMK4, CAMKK1, CAMKK2, DAPK2, EEF2K, MYLK, MYLK2 and MYLK3 assays additionally contained 1 μg/ml Calmodulin and 0.5 mM CaCl2). The PRKG1 and PRKG2 assays additionally contained 1 μM cGMP. The DNA-PK assay additionally contained 2.5 μg/ml DNA. The protein kinase reaction cocktails were incubated at 30° C. for 60 minutes. The reaction was stopped with 50 μl of 2% (v/v) H3PO4, plates were aspirated and washed two times with 200 μl 0.9% (w/v) NaCl. Incorporation of 33Pi (counting of “cpm”) was determined with a microplate scintillation counter (Microbeta, Wallac). All protein kinase assays were performed with a BeckmanCoulter Biomek 2000/SL robotic system.
All protein kinases provided by ProQinase were expressed in Sf9 insect cells or in E. coli as recombinant GST-fusion proteins or His-tagged proteins, either as full-length or enzymatically active fragments. All kinases were produced from human cDNAs and purified by either GSHaffinity chromatography or immobilized metal. Affinity tags were removed from a number of kinases during purification. […]
For each kinase, the median value of the cpm of three wells was defined as “low control” (n=3). This value reflects unspecific binding of radioactivity to the plate in the absence of a protein kinase but in the presence of the substrate. […] The residual activity (in %) for each compounds well was calculated by using the following formula: […]

The next assay addresses T4, Phosphodiesterase PDE3 (Homo sapiens, UniProt Q14432).
T4 construct: Eurofins Panlabs
The experiment in a line: Panlab assay, Phosphodiesterase PDE3. The class given is biochemical. To be noted: read-out: IC50, inhibition of Phosphodiesterase PDE3 activity. The method, then: (§3) Compounds A, B, C, and D were tested in Panlab assays to evaluate potential off-target activity using standard assay kits. Methods employed in these studies have been adapted from the scientific literature to maximize reliability and reproducibility.
(§4) IC50 values were determined by a non-linear, least squares regression analysis using MathIQ™ (ID Business Solutions Ltd., UK). […] Where presented, the Hill coefficient (nH), defining the slope of the competitive binding curve, was calculated using MathIQ™.

The next assay deals with T5, Dopamine Transporter (Homo sapiens, UniProt Q01959).
T5 construct: Eurofins Panlabs
The experiment in a line: Panlab assay, Dopamine Transporter. The class given is binding. The method, then:
as §3, §4

The structures appear in SMILES notation. Several values for one entry are separate records, joined by “and”; a condition that tells them apart may be missing. Identical values can stand only once. Some results are limits rather than exact numbers.

This is an account of results in patent publication US20180298024A1, “CORTISTATIN ANALOGS AND USES THEREOF” (President and Fellows of Harvard College, priority 2015, published 2018).

As a reminder, the IC50 is the concentration that inhibits the measured activity by half. What is called Ki is the equilibrium dissociation constant of an inhibitor or competing ligand from its target. For orientation: inhibition means the percentage by which the read-out fell short of the control.

T1 sequence (P25103 whole entry): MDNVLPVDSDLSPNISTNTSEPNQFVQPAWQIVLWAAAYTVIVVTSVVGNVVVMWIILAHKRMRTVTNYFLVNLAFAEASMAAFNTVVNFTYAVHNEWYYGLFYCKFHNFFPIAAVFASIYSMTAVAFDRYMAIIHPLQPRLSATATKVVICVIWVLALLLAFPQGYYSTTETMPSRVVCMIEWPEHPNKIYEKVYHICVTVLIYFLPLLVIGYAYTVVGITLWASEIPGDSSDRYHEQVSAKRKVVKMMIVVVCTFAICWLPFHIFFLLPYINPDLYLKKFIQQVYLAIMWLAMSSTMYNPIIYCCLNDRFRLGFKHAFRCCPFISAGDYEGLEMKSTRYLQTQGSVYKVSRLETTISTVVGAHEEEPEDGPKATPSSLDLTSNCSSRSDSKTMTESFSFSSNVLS
T5 sequence (Q01959 whole entry): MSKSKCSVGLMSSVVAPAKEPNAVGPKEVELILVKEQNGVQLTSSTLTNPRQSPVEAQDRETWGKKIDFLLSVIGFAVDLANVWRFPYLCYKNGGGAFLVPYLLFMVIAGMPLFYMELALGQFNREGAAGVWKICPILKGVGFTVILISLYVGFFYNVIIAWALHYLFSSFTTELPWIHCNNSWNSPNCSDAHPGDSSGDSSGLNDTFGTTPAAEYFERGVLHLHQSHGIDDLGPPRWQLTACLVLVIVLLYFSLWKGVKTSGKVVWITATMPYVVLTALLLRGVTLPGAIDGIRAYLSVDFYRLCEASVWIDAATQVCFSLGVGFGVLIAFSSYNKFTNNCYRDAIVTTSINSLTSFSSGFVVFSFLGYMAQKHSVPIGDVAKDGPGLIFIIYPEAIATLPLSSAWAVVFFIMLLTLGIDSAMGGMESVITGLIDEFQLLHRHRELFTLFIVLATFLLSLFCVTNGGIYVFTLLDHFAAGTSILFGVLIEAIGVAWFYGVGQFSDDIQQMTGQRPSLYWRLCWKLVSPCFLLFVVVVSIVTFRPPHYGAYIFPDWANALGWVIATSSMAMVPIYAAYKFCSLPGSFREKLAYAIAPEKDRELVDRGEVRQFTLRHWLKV
T4 sequence (Q14432 whole entry): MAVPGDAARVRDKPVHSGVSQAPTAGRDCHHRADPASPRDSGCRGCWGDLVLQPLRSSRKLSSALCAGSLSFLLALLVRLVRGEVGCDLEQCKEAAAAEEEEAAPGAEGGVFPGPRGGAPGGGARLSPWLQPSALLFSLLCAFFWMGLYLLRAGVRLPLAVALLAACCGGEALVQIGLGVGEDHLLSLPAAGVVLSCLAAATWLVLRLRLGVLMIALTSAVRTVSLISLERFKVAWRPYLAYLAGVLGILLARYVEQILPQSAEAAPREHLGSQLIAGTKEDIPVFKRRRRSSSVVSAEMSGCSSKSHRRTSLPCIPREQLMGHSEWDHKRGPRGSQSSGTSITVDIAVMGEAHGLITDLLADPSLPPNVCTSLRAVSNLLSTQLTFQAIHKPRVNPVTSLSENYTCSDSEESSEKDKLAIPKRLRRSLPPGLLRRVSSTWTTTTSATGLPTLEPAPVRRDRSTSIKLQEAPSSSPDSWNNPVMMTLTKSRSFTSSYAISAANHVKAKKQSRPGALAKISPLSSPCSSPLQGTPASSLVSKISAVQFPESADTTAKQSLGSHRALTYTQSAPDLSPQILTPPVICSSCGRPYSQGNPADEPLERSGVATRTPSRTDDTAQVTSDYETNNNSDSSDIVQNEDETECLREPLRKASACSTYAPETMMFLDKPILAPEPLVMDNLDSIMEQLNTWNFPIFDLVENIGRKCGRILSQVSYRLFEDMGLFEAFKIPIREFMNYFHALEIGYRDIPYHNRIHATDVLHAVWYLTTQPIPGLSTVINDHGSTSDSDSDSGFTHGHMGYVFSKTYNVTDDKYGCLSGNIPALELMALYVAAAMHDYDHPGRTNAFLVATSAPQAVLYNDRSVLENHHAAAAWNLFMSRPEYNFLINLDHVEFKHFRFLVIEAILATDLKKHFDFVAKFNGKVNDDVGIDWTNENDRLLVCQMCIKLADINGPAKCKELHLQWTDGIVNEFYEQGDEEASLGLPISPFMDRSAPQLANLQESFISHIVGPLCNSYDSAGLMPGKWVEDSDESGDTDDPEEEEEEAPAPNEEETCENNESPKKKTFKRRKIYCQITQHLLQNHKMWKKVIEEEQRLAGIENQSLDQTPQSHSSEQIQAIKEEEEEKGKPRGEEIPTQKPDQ

For `C[C@]12CC=C3C=C4CC[C@@H](O)C[C@]45CC[C@]3(O5)[C@@H]1CC[C@@H]2c1ccc2ccncc2c1` [Compound A, (3S,3aR,9R,10aR,12aS,12bR)-3-(isoquinolin-7-yl)-3a-methyl-1,2,3,3a,4,7,8,9,10,11,12,12b-dodecahydro-10a,12a-epoxybenzo[4,5]cyclohepta[1,2-e]inden-9-ol], the IC50 against Tachykinin NK1 was 5.94 µM; against Adenosine Transporter, 3.61 µM; at Phosphodiesterase PDE3, 3.26 µM; on Dopamine Transporter it was 4.9 µM. At Tachykinin NK1, the “nH (Hill coefficient), Tachykinin NK1” value was 1.01. For the same compound, the Ki at Tachykinin NK1 (Cheng and Prusoff) is 4.3 µM; on Adenosine Transporter (Cheng and Prusoff) it was 1.23 µM; at Dopamine Transporter (Cheng and Prusoff), 3.89 µM. Also, the “nH (Hill coefficient), Adenosine Transporter” value at Adenosine Transporter was found to be 1.30. The inhibition at 1 µM at CAMK2B (1 μM, 2 replicates, read-out: average percent inhibition of CAMK2B) is more than 50%. Besides, the “percent inhibition of CAMK2B, replicates” value on CAMK2B (1 μM, single replicates) is 36% and 79%. The “inhibition of CAMK2B upon retesting” value against CAMK2B (up to 10 μM) is recorded as “not inhibited”. The “nH (Hill coefficient), Dopamine Transporter” value on Dopamine Transporter turned out to be 0.97.
